# ChEMBL document CHEMBL6114960, “Discovery of First-in-Class FXR and HSD17B13 Dual Modulator for the Treatment of Metabolic Dysfunction-Associated Fatty Liver Disease” (J Med Chem, 2025)
# Legend:
# [1] = biological target: T1, Bile acid receptor (Homo sapiens, UniProt Q96RI1); assay: Agonist activity at FXR (unknown origin) transfected in human HepG2 cells incubated for 24 hrs by luciferase assay; assay type: cell-based
# T1 sequence (Q96RI1 whole entry): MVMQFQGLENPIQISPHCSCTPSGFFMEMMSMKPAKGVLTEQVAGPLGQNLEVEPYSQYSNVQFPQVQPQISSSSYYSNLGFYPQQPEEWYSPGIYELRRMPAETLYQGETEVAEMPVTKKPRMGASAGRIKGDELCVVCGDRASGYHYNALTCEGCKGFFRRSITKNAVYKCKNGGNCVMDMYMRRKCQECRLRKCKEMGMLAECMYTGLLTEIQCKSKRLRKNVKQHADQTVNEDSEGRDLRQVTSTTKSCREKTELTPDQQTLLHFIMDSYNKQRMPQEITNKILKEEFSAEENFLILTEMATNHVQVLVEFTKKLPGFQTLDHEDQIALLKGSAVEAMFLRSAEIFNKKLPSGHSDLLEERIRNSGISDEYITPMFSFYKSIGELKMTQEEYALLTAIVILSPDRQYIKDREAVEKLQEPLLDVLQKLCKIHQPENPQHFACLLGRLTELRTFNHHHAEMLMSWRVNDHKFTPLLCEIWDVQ
# [2] = biological target: T2, Progesterone receptor (Homo sapiens, UniProt P06401); assay: Agonist activity at progesterone receptor (unknown origin) transfected in green monkey CV-1 cells co-transfected with NHR responsive luciferase reporter incubated for 18 hrs by luciferase assay; assay type: cell-based
# T2 sequence (P06401 whole entry): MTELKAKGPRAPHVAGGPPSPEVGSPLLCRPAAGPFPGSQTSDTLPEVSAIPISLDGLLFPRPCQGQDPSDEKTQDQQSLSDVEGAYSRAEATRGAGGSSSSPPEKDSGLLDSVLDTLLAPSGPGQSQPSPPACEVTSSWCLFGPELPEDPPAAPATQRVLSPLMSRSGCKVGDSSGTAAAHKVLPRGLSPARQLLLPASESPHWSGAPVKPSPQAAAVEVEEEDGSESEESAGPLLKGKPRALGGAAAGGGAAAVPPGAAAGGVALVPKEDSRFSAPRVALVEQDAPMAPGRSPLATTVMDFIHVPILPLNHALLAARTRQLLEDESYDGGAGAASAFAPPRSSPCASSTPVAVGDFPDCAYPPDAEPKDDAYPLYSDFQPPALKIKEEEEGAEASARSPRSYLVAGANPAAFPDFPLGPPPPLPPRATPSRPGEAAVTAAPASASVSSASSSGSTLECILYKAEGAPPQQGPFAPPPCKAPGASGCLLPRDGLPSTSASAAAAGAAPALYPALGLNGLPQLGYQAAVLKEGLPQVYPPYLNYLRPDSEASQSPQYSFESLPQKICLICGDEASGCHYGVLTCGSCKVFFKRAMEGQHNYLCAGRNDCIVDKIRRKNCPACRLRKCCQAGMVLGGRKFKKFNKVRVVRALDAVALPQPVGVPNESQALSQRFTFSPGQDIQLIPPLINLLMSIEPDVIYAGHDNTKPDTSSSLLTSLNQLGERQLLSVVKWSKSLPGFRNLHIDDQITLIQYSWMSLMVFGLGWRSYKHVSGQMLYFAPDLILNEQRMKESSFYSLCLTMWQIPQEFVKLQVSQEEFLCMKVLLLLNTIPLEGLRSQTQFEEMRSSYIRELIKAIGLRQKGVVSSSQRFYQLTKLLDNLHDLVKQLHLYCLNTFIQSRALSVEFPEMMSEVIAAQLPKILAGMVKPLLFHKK
# [3] = biological target: T3, Androgen receptor (Homo sapiens, UniProt P10275); assay: Agonist activity at androgen receptor (unknown origin) transfected in green monkey CV-1 cells co-transfected with NHR responsive luciferase reporter incubated for 18 hrs by luciferase assay; assay type: cell-based
# T3 sequence (P10275 whole entry): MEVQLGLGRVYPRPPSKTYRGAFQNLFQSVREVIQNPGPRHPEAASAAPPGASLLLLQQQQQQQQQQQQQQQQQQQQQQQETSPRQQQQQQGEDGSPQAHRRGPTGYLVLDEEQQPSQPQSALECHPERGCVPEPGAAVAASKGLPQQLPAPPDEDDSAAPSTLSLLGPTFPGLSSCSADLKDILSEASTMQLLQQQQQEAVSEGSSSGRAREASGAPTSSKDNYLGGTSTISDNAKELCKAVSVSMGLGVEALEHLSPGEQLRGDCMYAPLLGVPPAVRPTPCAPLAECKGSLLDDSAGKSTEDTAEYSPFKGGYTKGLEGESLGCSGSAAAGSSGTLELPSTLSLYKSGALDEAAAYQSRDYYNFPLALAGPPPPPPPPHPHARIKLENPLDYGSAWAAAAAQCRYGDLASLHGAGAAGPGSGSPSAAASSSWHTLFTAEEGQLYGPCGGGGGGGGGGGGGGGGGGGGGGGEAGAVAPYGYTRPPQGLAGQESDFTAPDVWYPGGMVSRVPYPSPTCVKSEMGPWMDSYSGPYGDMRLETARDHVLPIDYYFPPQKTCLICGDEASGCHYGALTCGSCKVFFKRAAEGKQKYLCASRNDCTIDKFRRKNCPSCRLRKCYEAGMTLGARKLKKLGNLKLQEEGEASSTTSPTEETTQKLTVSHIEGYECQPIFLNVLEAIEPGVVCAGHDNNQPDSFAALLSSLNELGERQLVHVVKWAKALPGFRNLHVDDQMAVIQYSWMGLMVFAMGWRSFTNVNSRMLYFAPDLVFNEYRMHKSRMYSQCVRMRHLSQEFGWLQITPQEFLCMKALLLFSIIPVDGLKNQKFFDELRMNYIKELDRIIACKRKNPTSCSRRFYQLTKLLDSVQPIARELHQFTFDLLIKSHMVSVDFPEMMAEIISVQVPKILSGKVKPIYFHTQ
# [4] = biological target: T4, G-protein coupled bile acid receptor 1 (Homo sapiens, UniProt Q8TDU6); assay: Agonist activity at TGR5 in human NCI-H716 cells assessed as increase in intracellular cAMP level preincubated with compound for 60 mins followed by IBMX addition and measured after 24 hrs by HTR-FRET assay; assay type: functional, cell-based
# T4 sequence (Q8TDU6 whole entry): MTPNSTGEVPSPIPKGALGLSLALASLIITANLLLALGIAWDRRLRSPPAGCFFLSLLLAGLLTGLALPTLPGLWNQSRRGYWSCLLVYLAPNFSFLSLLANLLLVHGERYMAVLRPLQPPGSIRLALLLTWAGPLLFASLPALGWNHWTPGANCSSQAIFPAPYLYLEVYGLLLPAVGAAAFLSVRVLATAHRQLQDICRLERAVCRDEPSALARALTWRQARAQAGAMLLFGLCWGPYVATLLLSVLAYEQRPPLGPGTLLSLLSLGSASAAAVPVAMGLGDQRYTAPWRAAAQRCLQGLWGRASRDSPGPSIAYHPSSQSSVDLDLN
# [5] = biological target: T5, Fatty acid-binding protein, liver (Homo sapiens, UniProt P07148); assay: Inhibition of FABP1 (unknown origin)
# T5 sequence (P07148 whole entry): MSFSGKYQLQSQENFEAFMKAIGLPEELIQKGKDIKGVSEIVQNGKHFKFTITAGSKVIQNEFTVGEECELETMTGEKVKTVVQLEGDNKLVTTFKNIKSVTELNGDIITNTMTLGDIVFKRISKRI
structure (smiles),measurement,setting,value
O=C(O)c1ccc(-c2ccc(OCc3c(-c4c(Cl)cccc4Cl)noc3C3CC3)cc2)cc1,EC50,[1],0.132 µM
same,EC50,[2],> 10 µM
same,EC50,[3],> 10 µM
same,EC50,[4],> 10 µM
same,IC50,[5],8.5 µM
